{"source": "patent US9132108B2", "about": "“Pharmaceutical composition for ameliorating and/or preventing leptin resistance, and use thereof” (HIROSHIMA UNIVERSITY, priority 2009, dated 2015)", "key": {"[1]": {"system": "STAT3 phosphorylation in hypothalami", "assay": "Western blotting of STAT3 phosphorylation in hypothalami 30 min after leptin injection (Example 2)", "format": "in vivo, mouse", "conditions": "Group 4 (high-fat diet+flurbiprofen) vs Group 2; approximately 10 mg/kg per day orally, 8 weeks; 30 minutes after leptin 1 mg/kg via tail vein; significance level <1%", "description": "4 weeks-old male mice (C57BL/6 Cr Slc) had been given normal diet (10 kcal % fat, D12450B, produced by Research Diets, Inc.) or high-fat diet (60 kcal % fat, D12492, produced by Research Diets, Inc.). Flurbiprofen was diluted with drinking water so that the administration amount of flurbiprofen would be approximately 10 mg/kg per day, and was orally administered to the mice in the form of drinking water.\nSpecifically, mice were divided into four groups each consisting of 7-8 mice. Mice of individual groups were given diets as follows. • Group 1: Normal diet (10 kcal % fat) only • Group 2: High-fat diet (60 kcal % fat) only • Group 3: Normal diet+flurbiprofen • Group 4: High-fat diet+flurbiprofen\nA solution prepared by solving mouse-derived leptin (450-31, produced by PeproTech Inc. or 498-OB, rmLeptin, produced by R&D systems) in physiological saline was non-orally administered via tail vein to the mice, which had been given high-fat diet or normal diet for 8 weeks. The non-oral administration was done in such a manner that the administration amount of leptin would be 1 mg/kg. As a control for leptin administration, physiological saline in equal amount was administered to the mice via tail vein.\nFIGS. 4 and 5 show the result of Western blotting of STAT3 phosphorylation in hypothalami of mice 30 minutes after leptin injection. […]"}, "[2]": {"system": "mice given high-fat diet (leptin resistance)", "assay": "Body weight of mice given high-fat or normal diet with flurbiprofen for 8 weeks (Example 1)", "format": "in vivo, mouse", "conditions": "approximately 10 mg/kg per day orally in drinking water", "description": "In the Examples, 4 weeks-old male mice (C57BL/6 Cr Slc, SHIMIZU Laboratory Supplies Co., Ltd.) were used as laboratory animals. All the animal tests in the Examples were carried out according to the NIH Guide for Care and Use of Laboratory Animals.\nMice were divided into four groups each consisting of 7-8 mice. Mice of individual groups were given diets as follows. • Group 1: Normal diet (10 kcal % fat, D12450B, produced by Research Diets, Inc.) only • Group 2: High-fat diet (60 kcal % fat, D12492, produced by Research Diets, Inc.) only • Group 3: Normal diet+flurbiprofen (F8514, produced by SIGMA) • Group 4: High-fat diet+flurbiprofen (F8514, produced by SIGMA)\nFlurbiprofen was diluted with drinking water so that the administration amount of flurbiprofen would be approximately 10 mg/kg per day, and was orally administered to the mice in the form of drinking water. Thereafter, the mice were weighed every 7 days.\nFIG. 3 is a graph showing changes in body weights of the mice of individual groups during 8 weeks after flurbiprofen administration. Values in the graph of FIG. 3 are averages of body weights of mice of each group (± their standard deviations) (n=7-8 with respect to each group). Further, statistic analysis was carried out using t-test."}, "mice": {"system": "mice", "assay": "Open Field Test, amounts of mice activity (Example 6)", "format": "in vivo, mouse", "conditions": "Group 3 or 4 (flurbiprofen) vs Group 1 or 2 (no flurbiprofen); 10 mg/kg per day orally, 8 weeks", "description": "In order to measure the amounts of mice activity, an Open Field Test was carried out. Specifically, 4 weeks-old male mice (C57BL/6 Cr Slc) were divided into four groups each consisting of 15-16 mice. Mice of individual groups were given diets as follows for 8 weeks similarly with Example 5. • Group 1: Normal diet (10 kcal % fat) only • Group 2: High-fat diet (60 kcal % fat) only • Group 3: Normal diet+flurbiprofen • Group 4: High-fat diet+flurbiprofen\nFlurbiprofen (F8514, produced by SIGMA) was diluted with drinking water so that the administration amount of flurbiprofen would be 10 mg/kg per day, and was orally administered to the mice in the form of drinking water.\nThe mice raised for 8 weeks with high-fat diet or normal diet were subjected to the Open Field Test.\nThe Open Field Test is a test in which mice were put at the center of a square field (48×48 cm) and the amounts of activity of the mice in the new environment were measured in numerals. Specifically, with respect to each of the mice, the amount of activity per 5 minutes was measured using a locomotor activity measuring device (SCANET MV-10MT, produced by Toyo Sangyo Co., Ltd.). The measurements were performed between 16:30 and 17:30 which was a time before feeding behavior of the mice would become active. […]"}, "[3]": {"conditions": "marketed non-steroidal anti-inflammatory agent; cited from earlier work"}, "plasma leptin levels": {"system": "plasma leptin levels", "assay": "Plasma leptin levels by ELISA before and after fasting (Example 3)", "format": "in vivo, mouse", "conditions": "Group 4 (high-fat diet+flurbiprofen) vs Group 2, approximately 10 mg/kg per day orally, 8 weeks", "description": "4 weeks-old male mice (C57BL/6 Cr Slc) had been given normal diet (10 kcal % fat, D12450B, produced by Research Diets, Inc.) or high-fat diet (60 kcal % fat, D12492, produced by Research Diets, Inc.). Flurbiprofen was diluted with drinking water so that the administration amount of flurbiprofen would be approximately 10 mg/kg per day, and was orally administered to the mice in the form of drinking water. Specifically, mice were divided into four groups each consisting of 7-8 mice. Mice of individual groups were given diets as follows. • Group 1: Normal diet (10 kcal % fat) only • Group 2: High-fat diet (60 kcal % fat) only • Group 3: Normal diet+flurbiprofen • Group 4: High-fat diet+flurbiprofen 20-25 μL of blood samples before or after fasting for 28-29.5 hours were obtained from mice via tail vein, which had been given high-fat diet or normal diet for 8 weeks. […] Plasma leptin levels in the supernatants obtained by the centrifugation were measured by ELISA. […] Values in the graph of (a) of FIG. 6 are averages of plasma leptin levels of mice of each group measured before fasting (± their standard deviations) (n=7-8 with respect to each group). Similarly, values in the graph of (b) of FIG. 6 are averages of plasma leptin levels of mice of each group measured after fasting (± their standard deviations) (n=7-8 with respect to each group). […]"}}, "data": [{"smiles": "C[C@@H](C(=O)O)c1ccc(-c2ccccc2)c(F)c1", "note": "[flurbiprofen]", "values": [{"measurement": "intensity of STAT3 phosphorylation in hypothalami", "setting": "[1]", "result": "significantly higher"}, {"measurement": "body weight", "setting": "[2]; Group 3 (normal diet+flurbiprofen) vs Group 1 (normal diet only)", "result": "no significant difference in body weight"}, {"measurement": "body weight", "setting": "[2]; Group 4 (high-fat diet+flurbiprofen) vs Group 2 (high-fat diet only), significance level <5%", "result": "prevented an increase in body weight"}, {"measurement": "amounts of activity (locomotor activity, counts/5 min)", "setting": "mice", "result": "no significant difference in the amounts of activity"}, {"measurement": "dependence and development of resistance", "setting": "[3]", "result": "no dependence on flurbiprofen or no development of resistance to flurbiprofen is observed"}, {"measurement": "plasma leptin levels", "setting": "plasma leptin levels", "result": "significantly lower plasma leptin levels"}]}]}
